Key:
Type in all cases: in vivo
[1] = system: barnyardgrass (Echinochloa crus-galli); assay: Test A greenhouse herbicide test, pre- and postemergence
Outline: (§1)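 Seeds sown in loam–sand blend got a preemergence directed soil spray of compound in non-phytotoxic solvent with surfactant. Postemergence treatment was given at 2–10 cm, one- to two-leaf stage. After ~10 d in greenhouse, injury was rated visually vs untreated controls, 0 (no effect) to 100 (complete control).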

corn (Zea mays) = assay: as above; conditions: Postemergence
Outline: as §1

kochia (Kochia scoparia) [2] = assay: as above
Outline: as §1

[3] = system: pigweed (Amaranthus retroflexus); assay: as above
Outline: as §1

[4] = system: ragweed (common ragweed, Ambrosia elatior); assay: as above
Outline: as §1

[5] = system: wheat (Triticum aestivum); assay: as above; conditions: Postemergence
Outline: as §1

[6] = system: blackgrass (Alopecurus myosuroides); assay: Test A greenhouse herbicide test, postemergence
Outline: (§2)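 Plants grown in loam soil/sand blend pots were treated postemergence at 2 to 10 cm height, one- to two-leaf stage, with formulated test chemicals. After approximately 10 d in a greenhouse, injury was rated visually against untreated controls on a 0 to 100 scale (0 no effect, 100 complete control).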

[7] = system: galium (catchweed bedstraw, Galium aparine); assay: Test A greenhouse herbicide test, postemergence
Outline: as §2

[8] = system: crabgrass, large (large crabgrass, Digitaria sanguinalis); assay: Test C greenhouse herbicide test, pre- and postemergence
Outline: (§3)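 Each species was treated both before emergence, in a loam–sand soil mix, and after emergence, as 1- to 4-leaf seedlings in peat-based potting medium. Plants stayed in the greenhouse 13 to 15 d, then were scored from 0 (no effect) to 100 (complete control) relative to controls.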

[9] = system: oilseed rape (Brassica napus); assay: as above
Outline: as §3

kochia (Kochia scoparia) [10] = assay: Test C greenhouse herbicide test, postemergence
Outline: (§4)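 Greenhouse postemergence spray on plants 2–18 cm tall; response judged visually after 13–15 d relative to untreated controls using a 0 (none) to 100 (full control) scale.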

[11] = system: oat, wild (wild oat, Avena fatua); assay: Test C greenhouse herbicide test, postemergence
Outline: as §4

[12] = Postemergence, 125 g ai/ha, 0 to 100 scale where 0 is no effect and 100 is complete control
[13] = Postemergence, 500 g ai/ha, visual rating after approx. 10 d, 0 to 100 scale (0 no effect, 100 complete control)
[14] = Preemergence, 125 g ai/ha, 0 to 100 scale where 0 is no effect and 100 is complete control
[15] = Preemergence, 500 g ai/ha, 0 to 100 scale where 0 is no effect and 100 is complete control
[16] = 125 g ai/ha, 0 to 100 scale where 0 is no effect and 100 is complete control
[17] = 500 g ai/ha, visual rating after approx. 10 d, 0 to 100 scale (0 no effect, 100 complete control)
[18] = Postemergence, 31 g ai/ha, scale 0 to 100 (0 no effect, 100 complete control)
[19] = Postemergence, 125 g ai/ha, scale 0 to 100, 0 is no effect, 100 is complete control
[20] = Postemergence, 250 g ai/ha, scale 0 to 100, 0 no effect, 100 complete control, 13 to 15 d
[21] = Preemergence, 31 g ai/ha, scale 0 to 100, 0 is no effect, 100 is complete control
[22] = Preemergence, 62 g ai/ha, scale 0 to 100, 0 is no effect, 100 is complete control
[23] = Preemergence, 125 g ai/ha, scale 0 to 100, 0 is no effect, 100 is complete control
[24] = Preemergence, 250 g ai/ha, scale 0 to 100 (0 no effect, 100 complete control)
[25] = Postemergence, 62 g ai/ha, 0 to 100 scale (0 no effect, 100 complete control)
[26] = postemergence, 125 g ai/ha, scale 0 to 100, 0 no effect, 100 complete control

Compound: Cc1ccc2ccccc2c1-c1c(O)c(Cl)nn(C)c1=O [Compound 125]
- Plant response rating, Barnyardgrass [1, 12]: 90
- Plant response rating, Barnyardgrass [1, 13]: 90
- Barnyardgrass plant response rating [1, 14]: 70
- Plant response rating, Barnyardgrass [1, 15]: 90
- Plant response rating, Corn (corn (Zea mays); [16]): 20
- Plant response rating, Corn (corn (Zea mays); [17]): 30
- Plant response rating, Kochia (kochia (Kochia scoparia) [2]; [12]): 100
- Plant response rating, Kochia (kochia (Kochia scoparia) [2]; [13]): 100
- Kochia plant response rating (kochia (Kochia scoparia) [2]; [14]): 60
- Plant response rating, Kochia (kochia (Kochia scoparia) [2]; [15]): 90
- Plant response rating, Pigweed [3, 12]: 100
- Plant response rating, Pigweed [3, 13]: 100
- Pigweed plant response rating [3, 14]: 100
- Plant response rating, Pigweed [3, 15]: 100
- Plant response rating, Ragweed [4, 12]: 90
- Plant response rating, Ragweed [4, 13]: 100
- Ragweed plant response rating [4, 14]: 80
- Plant response rating, Ragweed [4, 15]: 90
- Plant response rating, Wheat [5, 16]: 50
- Plant response rating, Wheat [5, 17]: 80
- Plant response rating, Blackgrass [6, 16]: 70
- Plant response rating, Blackgrass [6, 17]: 80
- Plant response rating, Galium [7, 16]: 90
- Plant response rating, Galium [7, 17]: 90
- Plant response rating, Crabgrass, Large [8, 18]: 25
- Plant response rating, Crabgrass, Large [8, 19]: 40
- Plant response rating, Crabgrass, Large [8, 20]: 60
- Plant response rating, Crabgrass, Large [8, 21]: 40
- Plant response rating, Crabgrass, Large [8, 22]: 45
- Plant response rating, Crabgrass, Large [8, 23]: 75
- Crabgrass, Large plant response rating [8, 24]: 98
- Crabgrass, Large plant response rating ([8]; postemergence, 62 g ai/ha, scale 0 to 100, 0 no effect, 100 complete control): 35
- Plant response rating, Oilseed Rape [9, 18]: 0
- Plant response rating, Oilseed Rape [9, 19]: 5
- Plant response rating, Oilseed Rape [9, 20]: 10
- Plant response rating, Oilseed Rape [9, 21]: 85
- Plant response rating, Oilseed Rape [9, 22]: 0
- Plant response rating, Oilseed Rape [9, 23]: 85
- Oilseed Rape plant response rating [9, 24]: 100
- Plant response rating, Kochia (kochia (Kochia scoparia) [10]; [18]): 85
- Plant response rating, Kochia (kochia (Kochia scoparia) [10]; [19]): 90
- Plant response rating, Kochia (kochia (Kochia scoparia) [10]; [20]): 90
- Plant response rating, Oat, Wild [11, 18]: 85
- Plant response rating, Oat, Wild [11, 19]: 95
- Plant response rating, Oat, Wild [11, 20]: 95

Compound: Cc1nn(C)c(=O)c(-c2cccc3ccc(C#N)cc23)c1O [Compound 127]
- Plant response rating, Barnyardgrass [1, 12]: 10
- Plant response rating, Barnyardgrass [1, 13]: 50
- Barnyardgrass plant response rating [1, 14]: 10
- Plant response rating, Barnyardgrass [1, 15]: 40
- Plant response rating, Corn (corn (Zea mays); [16]): 0
- Plant response rating, Corn (corn (Zea mays); [17]): 10
- Plant response rating, Kochia (kochia (Kochia scoparia) [2]; [12]): 70
- Plant response rating, Kochia (kochia (Kochia scoparia) [2]; [13]): 80
- Kochia plant response rating (kochia (Kochia scoparia) [2]; [14]): 0
- Plant response rating, Kochia (kochia (Kochia scoparia) [2]; [15]): 90
- Plant response rating, Pigweed [3, 12]: 90
- Plant response rating, Pigweed [3, 13]: 100
- Pigweed plant response rating [3, 14]: 70
- Plant response rating, Pigweed [3, 15]: 100
- Plant response rating, Ragweed [4, 12]: 60
- Plant response rating, Ragweed [4, 13]: 80
- Ragweed plant response rating [4, 14]: 30
- Plant response rating, Ragweed [4, 15]: 70
- Plant response rating, Wheat [5, 16]: 0
- Plant response rating, Wheat [5, 17]: 20
- Plant response rating, Blackgrass [6, 16]: 20
- Plant response rating, Blackgrass [6, 17]: 50
- Plant response rating, Galium [7, 16]: 90
- Plant response rating, Galium [7, 17]: 100
- Plant response rating, Crabgrass, Large [8, 18]: 0
- Crabgrass, Large plant response rating [8, 25]: 5
- Plant response rating, Crabgrass, Large [8, 20]: 25
- Crabgrass, Large plant response rating [8, 26]: 10
- Plant response rating, Oilseed Rape [9, 18]: 0
- Oilseed Rape plant response rating [9, 25]: 0
- Plant response rating, Oilseed Rape [9, 20]: 100
- Oilseed Rape plant response rating [9, 26]: 25
- Plant response rating, Kochia (kochia (Kochia scoparia) [10]; [18]): 40
- Kochia plant response rating (kochia (Kochia scoparia) [10]; [25]): 85
- Plant response rating, Kochia (kochia (Kochia scoparia) [10]; [20]): 90
- Kochia plant response rating (kochia (Kochia scoparia) [10]; [26]): 95
- Plant response rating, Oat, Wild [11, 18]: 10
- Oat, Wild plant response rating [11, 25]: 20
- Plant response rating, Oat, Wild [11, 20]: 60
- Oat, Wild plant response rating [11, 26]: 55
